Test results as given in publication PMC10099810, “Rational Design and Synthesis of D‐galactosyl Lysophospholipids as Selective Substrates and non‐ATP‐competitive Inhibitors of Phosphatidylinositol Phosphate Kinases” (Chemistry (Weinheim an Der Bergstrasse, Germany), 2022).

Experiments:
hPIKfyve (human PIKfyve) = target: T1, hPIKfyve (human PIKfyve) (Homo sapiens, UniProt Q9Y2I7); test: […]-ATP lipid kinase assay with TLC, diC16-PI3P substrate; format: biochemical
T1 construct: full length human PIKfyve with an N-terminal FLAG tag

[1] = target: T2, zPIP5Kα (zebrafish PIP5Kα) (Danio rerio, UniProt Q503I3); test: […]-ATP lipid kinase assay with TLC, diC16-PI4P substrate; ATP and PI4P competition; format: biochemical
T2 construct: gene pip5k1aa; zebrafish PIP5Kα with a C-terminal His-tag

[2] = target: T3, 5′ AMP-activated protein kinase α1 (AMPKα1) (Homo sapiens, UniProt Q13131); test: KinaseProfiler activity screen, […] inhibition at […]; format: biochemical
T3 construct: gene PRKAA1

purified protein = substrate: CCCCCCCCCCCCCCCC(=O)NCCOP(=O)(O)OC[C@H]1OC(O)[C@H](OP(=O)(O)O)[C@@H](O)[C@H]1O; test: purified protein; format: biochemical, Danio rerio; conditions: Mg2+, phosphorylated at the anomeric OH

T1 sequence (Q9Y2I7 2-2098): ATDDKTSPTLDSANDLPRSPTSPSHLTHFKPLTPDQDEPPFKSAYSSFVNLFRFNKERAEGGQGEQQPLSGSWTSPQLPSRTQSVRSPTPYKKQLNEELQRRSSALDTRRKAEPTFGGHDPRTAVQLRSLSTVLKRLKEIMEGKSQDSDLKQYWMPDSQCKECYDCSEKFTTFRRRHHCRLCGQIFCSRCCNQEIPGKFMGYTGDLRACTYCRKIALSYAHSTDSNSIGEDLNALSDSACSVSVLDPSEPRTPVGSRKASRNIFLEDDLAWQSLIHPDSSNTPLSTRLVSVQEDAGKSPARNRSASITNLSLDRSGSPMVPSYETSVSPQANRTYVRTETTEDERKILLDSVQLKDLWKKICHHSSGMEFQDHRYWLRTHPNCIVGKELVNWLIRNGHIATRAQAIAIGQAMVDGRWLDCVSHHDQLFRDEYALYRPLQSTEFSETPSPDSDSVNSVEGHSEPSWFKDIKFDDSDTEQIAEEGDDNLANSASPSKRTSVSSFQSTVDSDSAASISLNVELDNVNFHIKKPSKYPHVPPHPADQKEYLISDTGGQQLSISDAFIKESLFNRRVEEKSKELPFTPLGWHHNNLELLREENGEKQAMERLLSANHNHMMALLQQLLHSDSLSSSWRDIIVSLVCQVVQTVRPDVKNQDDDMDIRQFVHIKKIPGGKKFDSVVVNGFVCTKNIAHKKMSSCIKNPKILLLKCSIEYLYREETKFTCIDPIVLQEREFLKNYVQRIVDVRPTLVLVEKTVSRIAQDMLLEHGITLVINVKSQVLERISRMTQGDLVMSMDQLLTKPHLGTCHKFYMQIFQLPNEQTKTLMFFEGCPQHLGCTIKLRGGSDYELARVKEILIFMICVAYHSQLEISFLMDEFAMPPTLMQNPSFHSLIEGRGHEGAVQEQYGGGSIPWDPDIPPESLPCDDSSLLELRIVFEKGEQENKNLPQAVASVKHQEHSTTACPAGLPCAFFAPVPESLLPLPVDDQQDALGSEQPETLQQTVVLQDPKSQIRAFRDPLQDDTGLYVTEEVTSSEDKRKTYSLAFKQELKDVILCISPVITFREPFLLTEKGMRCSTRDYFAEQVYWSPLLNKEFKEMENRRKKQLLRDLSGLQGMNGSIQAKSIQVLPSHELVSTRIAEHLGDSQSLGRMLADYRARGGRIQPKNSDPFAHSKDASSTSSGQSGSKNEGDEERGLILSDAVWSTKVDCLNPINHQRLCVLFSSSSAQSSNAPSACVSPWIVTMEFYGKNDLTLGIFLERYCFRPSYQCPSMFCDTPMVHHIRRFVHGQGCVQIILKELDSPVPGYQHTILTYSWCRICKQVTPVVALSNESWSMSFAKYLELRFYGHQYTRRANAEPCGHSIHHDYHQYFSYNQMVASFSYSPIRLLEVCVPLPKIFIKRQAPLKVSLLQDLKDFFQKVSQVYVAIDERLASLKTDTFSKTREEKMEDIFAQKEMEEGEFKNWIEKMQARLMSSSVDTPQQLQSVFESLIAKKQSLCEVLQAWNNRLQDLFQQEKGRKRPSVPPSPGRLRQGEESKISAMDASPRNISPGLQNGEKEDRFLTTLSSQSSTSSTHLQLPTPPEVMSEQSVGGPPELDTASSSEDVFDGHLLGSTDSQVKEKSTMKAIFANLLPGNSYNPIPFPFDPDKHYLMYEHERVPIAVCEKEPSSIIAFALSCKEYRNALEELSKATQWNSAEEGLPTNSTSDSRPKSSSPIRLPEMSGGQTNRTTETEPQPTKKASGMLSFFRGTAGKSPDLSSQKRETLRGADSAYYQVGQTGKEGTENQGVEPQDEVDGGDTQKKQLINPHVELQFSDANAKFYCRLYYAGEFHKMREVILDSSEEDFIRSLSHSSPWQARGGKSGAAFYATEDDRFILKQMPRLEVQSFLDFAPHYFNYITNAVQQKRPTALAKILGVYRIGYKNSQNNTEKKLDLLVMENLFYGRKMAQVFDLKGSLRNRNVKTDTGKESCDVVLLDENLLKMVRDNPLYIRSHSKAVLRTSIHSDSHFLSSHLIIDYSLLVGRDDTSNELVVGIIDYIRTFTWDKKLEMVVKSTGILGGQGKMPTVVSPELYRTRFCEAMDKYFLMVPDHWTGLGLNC
T3 sequence (Q13131 whole entry): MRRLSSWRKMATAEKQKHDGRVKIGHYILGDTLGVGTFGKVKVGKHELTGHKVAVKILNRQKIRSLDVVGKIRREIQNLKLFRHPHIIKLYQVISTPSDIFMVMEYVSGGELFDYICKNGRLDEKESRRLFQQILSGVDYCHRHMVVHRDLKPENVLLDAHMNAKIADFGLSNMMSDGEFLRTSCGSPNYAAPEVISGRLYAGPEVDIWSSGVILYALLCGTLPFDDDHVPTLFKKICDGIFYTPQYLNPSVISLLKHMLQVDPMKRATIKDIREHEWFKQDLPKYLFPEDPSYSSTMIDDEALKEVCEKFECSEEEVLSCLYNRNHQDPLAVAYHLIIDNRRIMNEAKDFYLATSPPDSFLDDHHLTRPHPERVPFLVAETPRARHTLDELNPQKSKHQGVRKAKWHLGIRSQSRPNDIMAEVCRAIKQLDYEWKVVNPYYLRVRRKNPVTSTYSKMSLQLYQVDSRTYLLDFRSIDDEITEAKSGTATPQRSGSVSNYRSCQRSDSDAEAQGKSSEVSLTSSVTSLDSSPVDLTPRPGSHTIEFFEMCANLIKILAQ
T3 sequence (Q9Y478 2-270 partner): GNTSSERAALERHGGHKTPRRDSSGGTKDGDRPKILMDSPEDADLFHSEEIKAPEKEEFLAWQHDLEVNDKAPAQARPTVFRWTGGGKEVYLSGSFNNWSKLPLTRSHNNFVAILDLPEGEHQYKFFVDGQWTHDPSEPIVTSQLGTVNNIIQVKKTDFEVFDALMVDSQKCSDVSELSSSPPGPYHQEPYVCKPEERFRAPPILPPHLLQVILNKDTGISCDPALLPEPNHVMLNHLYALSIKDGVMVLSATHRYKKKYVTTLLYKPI
T3 sequence (P54619 whole entry partner): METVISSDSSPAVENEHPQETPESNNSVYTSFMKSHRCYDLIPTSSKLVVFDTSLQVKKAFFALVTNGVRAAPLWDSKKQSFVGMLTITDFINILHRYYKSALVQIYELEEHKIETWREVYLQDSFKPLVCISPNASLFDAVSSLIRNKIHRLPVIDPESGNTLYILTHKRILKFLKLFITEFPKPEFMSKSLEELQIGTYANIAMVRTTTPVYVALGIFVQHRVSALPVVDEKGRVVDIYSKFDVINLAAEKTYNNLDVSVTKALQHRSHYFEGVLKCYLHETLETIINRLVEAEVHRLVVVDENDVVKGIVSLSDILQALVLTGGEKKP

Molecule	IC50 (hPIKfyve (human PIKfyve)) [µM]	IC50 [1] [µM]	inhibition at 20 µM [2] [%]	Km (purified protein) [µM]
CCCCCCCCCCCCCCCC(=O)NCCOP(=O)(O)OC[C@H]1O[C@@H](OC)[C@H](OP(=O)(O)O)[C@H]2OC(C)(C)O[C@H]21 [compound 6]	6.2	~15	50	–
zPIP5Kα (zebrafish PIP5Kα) (Danio rerio) (protein, zebrafish PIP5Kα with a C-terminal His-tag) MAAPAVVSTDGADSSTPGNRKMASSEGLSTLGSSQTNKKTLGHRGIDPTGETTYKKTTSSALKGAIQLGITHSVGSLSQKPERDVLMQDFEVVESIFFPSQGSSSTPGHHHGDFKFKTYAPIAFRYFREMFGIRPDDYLYSLCNEPLIELSNPGASGSLFYVSSDDEFIIKTVQHKEAEFLQTLLPGYFMNLNQNMRTLLPKFYGLYCVQADGKNIRIVVMNNLLPRAVPMHLKFDLKGSTYKRRASPKERSKGVPTYKDLDFMQDMPEGILLENDHYTALSRTMQRDCRVLQSFKIMDYSLLVGIHILHRAGEEASTAVPDTQKKGQGQKPLYCTAIESIQGESKSKTSPQPYESMGGIPAFNSKGERLLVFIGIIDILQSYRLVKKLEHSWKALLHDGDTVSVHRPSFYADRFQKFMCSTVFRKSQLKTSPSKRSRLGPVSAGKKSNIAVSGQSHQQSLPVAAELTQSQLWSSEDPQGDSGMQTARPDLLPQQVAEDDITSSSADTTLSATSLVNSRLSTNTPVLSRSSVAGHSSEESLDMDVISLSEIVPQTSTSE	–	–	–	10 ± 1.3
